Laboratory results taken from PubChem BioAssay AID2060885 (Molecular Pharmacology Branch, DTP, NCI, 2025).
Several values for one entry are separate records, joined by “and”; a condition that tells them apart may be missing. Identical values can stand only once.

Tested on: NCI-H23 complex spheroids with HUVEC/MSC, viability
Assay: Anticancer human tumor NCI-H23 cell line growth inhibition [RAS];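 as to viability, T/C: 100% = DMSO vehicle control viability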
Conditions: for viability, T/C: stronger effect = lower value
Source text: RAS pathway inhibitors in Combinations in Complex Spheroids
A high-throughput screen of multi-cell type tumor spheroids was designed to identify active combinations of RAS pathway inhibitors and targeted small molecules. Complex spheroids include a stromal component modeled by human endothelial cells (HUVEC) and fibroblasts modeled by human mesenchymal stem cells (MSCs). The concentration ranges selected for each drug and investigational agent were based upon clinically achievable concentrations if the clinical Cmax of the agent was known.
Compounds. The drugs and investigational agents: abemaciclib (NSC768073), cobimetinib (NSC768068), divarasib (GDC6063, NSC841802), docetaxel (NSC628503), GDC-1971 (RLY-1971, NSC841576), gemcitabine (NSC613327), inavolisib (NSC800729), ipatasertib (NSC767898), KB-0742 (NSC834161), MRTX-1133 (NSC836407), osimertinib (NSC779217), RMC-4630 (NSC839698), RMC-6236 (NSC851965), RMC-6291 (NSC852671), Ro-3306 (NSC812927), sapanisertib (NSC764658), SN-38 (NSC673596), staurosporine (NSC755774), SY5609 (NSC837396), and tovorafenib (DAY101, NSC766906), were obtained from the National Cancer Institute (NCI) Developmental Therapeutics Program Chemical Repository. The FDA-approved anticancer drug set is available from the NCI Developmental Therapeutics Program. […] The stock solutions were prepared in dimethyl sulfoxide (DMSO, Sigma-Aldrich, St. Louis, MO, cat. D2650) at 800-fold the tested concentration and stored at -70 degrees C prior to their use. All drugs and investigational agents were tested over a range starting from a high concentration at or near the clinical Cmax and decreasing in half-log increments. If the clinical Cmax for an agent had not been determined, the highest concentration tested was 10 microM.
Cell Culture. All cells were maintained in an incubator at 37 degrees C and 5% CO2 with 95% humidity. The PDC lines were cultured according to standard operating procedures established by the NCI PDMR. All PDCs were thawed and cultured in Matrigel-coated flasks prepared with a working solution of 1X Ham's F-12 nutrient mix, without supplementation (Invitrogen, Waltham, MA, cat. 11765054), 100 U/mL penicillin-streptomycin (Invitrogen, cat. 15140122), and 2.5% Matrigel (Corning Inc., Corning, NY, cat. 354248) for the first three passages. The 362531-283-R-J2-PDC and 782815-120-R-J1-PDC lines were cultured in 6C/Colon 1B media, which includes advanced DMEM/F-12 (Thermo Fisher Scientific, cat. 12634028), 10 mM HEPES (Thermo Fisher Scientific, cat. 15630080), 1X GlutaMAX supplement (Thermo Fisher Scientific, cat. 35050061), 0.1 mg/mL primocin (InvivoGen, San Diego, CA, cat. ant-pm-2), 10% defined fetal bovine serum, heat inactivated (HyClone Laboratories Inc., Logan, UT, cat. SH30070.03HI), 50% L-WRN conditioned media (ATCC, cat. CRL-3276), 1.25 mM N-Acetyl-L-cysteine (Sigma-Aldrich, cat. A9165), 10 mM nicotinamide (Sigma-Aldrich, cat. N0636), 1X B-27 supplement (Thermo Fisher Scientific, cat. 17504044), 1X N-2 supplement (Thermo Fisher Scientific, cat. 17502048), 50 ng/mL human EGF (Thermo Fisher Scientific, cat. PHG0311), and 10 microM Y-27632 dihydrochloride (Tocris Bioscience, cat. 1254). The K12877-001-R-J1-PDC line was cultured in 6I media, which includes all 6C/Colon 1B media plus 10 ng/mL human FGF-10 (PeproTech, cat. 100-26), 1 ng/mL human FGF-2 (PeproTech, cat. 100-18B), 1 µM prostaglandin E2 (Tocris Bioscience, cat. 2296), […] hydrocortisone (Sigma-Aldrich, cat. H4001), and […] bovine insulin (Sigma-Aldrich, cat. I6634). The K86415-001-R-J1-PDC line was cultured in 6D media, which includes all 6C/Colon 1B media components minus the L-WRN conditioned media. The 485176-168-R4-J1-PDC was cultured in PANC media, which includes all 6C/Colon 1B media plus 100 ng/mL human FGF-10 (PeproTech, cat. 100-26), 500 nM SB-431542 (Selleckchem, cat. S1067), and 10 nM gastrin (Tocris Bioscience, cat. 3006). […]

[1] = compound alone, run of 07/15/2024
[2] = compound alone, run of 07/09/2024

Row | Compound | viability, T/C (compound 0.0316 µM) | viability, T/C (compound 0.1 µM) | viability, T/C (compound 0.316 µM) | viability, T/C (compound 1 µM) | viability, T/C (compound 3.16 µM) | IC50 (curve of compound) | also measured
1 | C#Cc1c(F)ccc2cc(O)cc(-c3ncc4c(N5CC6CCC(C5)N6)nc(OCC56CCCN5CC(F)C6)nc4c3F)c12 (configuration not stated) | 108% [middle of 8 runs] | 105% [middle of 8 runs] | 99.5% [middle of 8 runs] | 89.5% [middle of 8 runs] | 63.2% [middle of 8 runs] | – | viability, T/C (compound 10 µM): 38.2% [middle of 7 runs]; IC50 [1]: 5.77 µM [middle of 8 runs]
2 | C=CC(=O)N1CCN(c2nc(OCC3CCCN3C)nc3c(F)c(-c4nc(N)cc(C)c4C(F)(F)F)c(Cl)cc23)C(C)C1 (configuration not stated) | 39.9% [middle of 12 runs] | 38.5% [middle of 12 runs] | 38.3% [middle of 12 runs] | 37.2% [middle of 12 runs] | – | 8.5 nM and < 3.16 nM and 7.59 nM | viability, T/C (compound 0.00316 µM): 61.5% [middle of 12 runs]; viability, T/C (compound 0.01 µM): 48.4% [middle of 12 runs]; IC50 [1]: 9 nM [middle of 8 runs]
3 | C=CC(=O)Nc1cc(Nc2nccc(-c3cn(C)c4ccccc34)n2)c(OC)cc1N(C)CCN(C)C | 102% [middle of 4 runs] | – | 107% [middle of 4 runs] | – | – | > 1000 nM | viability, T/C (compound 0.00316 µM): 109% (2×) and 103% and 107%; viability, T/C (compound 0.01 µM): 105% [middle of 4 runs]
4 | CC(C)NCC(C(=O)N1CCN(c2ncnc3c2C(C)CC3O)CC1)c1ccc(Cl)cc1 (configuration not stated) | 103% [middle of 4 runs] | 97.1% [middle of 4 runs] | 102% [middle of 4 runs] | 93.3% [middle of 4 runs] | 73.3% [middle of 4 runs] | > 10000 nM and 9190 nM and 9740 nM | –
5 | CC(C)n1nc(-c2ccc3oc(N)nc3c2)c2c(N)ncnc21 | 61.7% [middle of 4 runs] | 53.8% [middle of 4 runs] | – | – | – | 83.1 nM and > 100 nM and 67 nM | viability, T/C (compound 0.000316 µM): 102% and 105% (2×) and 106%; viability, T/C (compound 0.00316 µM): 88.6% [middle of 4 runs]; viability, T/C (compound 0.01 µM): 83% [middle of 4 runs]
6 | CC(Nc1ccc2c(c1)OCCn1cc(N3C(=O)OCC3C(F)F)nc1-2)C(N)=O (configuration not stated) | 93.5% [middle of 4 runs] | 89.5% [middle of 4 runs] | 70.2% and 82.1% and 76.3% (2×) | 78.9% [middle of 4 runs] | 71.8% [middle of 4 runs] | > 10000 nM | viability, T/C (compound 10 µM): 69.6% [middle of 4 runs]
7 | CC1(C)CCC(Nc2ncc(C(F)(F)F)c(-c3c[nH]c4c(P(C)(C)=O)c(C#N)ccc34)n2)CN1 (configuration not stated) | – | – | – | – | – | – | viability, T/C (compound 0.000949 µM): 86.7% [middle of 4 runs]; viability, T/C (compound 0.003 µM): 73.2% [middle of 4 runs]; viability, T/C (compound 0.00949 µM): 51.7% [middle of 4 runs]; viability, T/C (compound 0.03 µM): 49.3% [middle of 4 runs]; viability, T/C (compound 0.0949 µM): 45.9% [middle of 4 runs]; viability, T/C (compound 0.3 µM): 48% [middle of 4 runs]
8 | CC1(O)CCCC1n1c(=O)c(C(F)F)cc2cnc(NC3CCN(S(C)(=O)=O)CC3)nc21 (configuration not stated) | 94% [middle of 4 runs] | – | 67.5% [middle of 4 runs] | 80.9% [middle of 4 runs] | 71.7% [middle of 4 runs] | 4.68 µM [middle of 4 runs] | viability, T/C (compound 10 µM): 14.3% [middle of 4 runs]
9 | CCC(CC)c1cc(NC2CCC(N)C2)n2nccc2n1 (configuration not stated) | 106% and 101% and 105% (2×) | 108% [middle of 4 runs] | 101% [middle of 4 runs] | 88.2% [middle of 4 runs] | 15.2% [middle of 4 runs] | 1.81 µM [middle of 4 runs] | viability, T/C (compound 10 µM): 0.91% [middle of 4 runs]
10 | CCN1CCN(Cc2ccc(Nc3ncc(F)c(-c4cc(F)c5nc(C)n(C(C)C)c5c4)n3)nc2)CC1 | 78% [middle of 4 runs] | 70.2% [middle of 4 runs] | 58% [middle of 4 runs] | – | – | > 1000 nM and 434 nM and 646 nM | viability, T/C (compound 0.00316 µM): 100% and 104% (2×) and 103%; viability, T/C (compound 0.01 µM): 92% [middle of 4 runs]
11 | CCc1c2c(nc3ccc(O)cc13)-c1cc3c(c(=O)n1C2)COC(=O)[C@]3(O)CC | – | – | – | – | – | 4.43 nM [middle of 4 runs] | viability, T/C (compound 0.000949 µM): 91.1% [middle of 4 runs]; viability, T/C (compound 0.003 µM): 59.1% [middle of 4 runs]; viability, T/C (compound 0.00949 µM): 32.2% [middle of 4 runs]; viability, T/C (compound 0.03 µM): 14.4% [middle of 4 runs]; viability, T/C (compound 0.0949 µM): 8.18% [middle of 4 runs]; viability, T/C (compound 0.3 µM): 6.26% [middle of 4 runs]
12 | CCn1c(-c2cc(N3CCN(C)CC3)cnc2C(C)OC)c2c3cc(ccc31)-c1csc(n1)CC(NC(=O)C1CC1C)C(=O)N1CCCC(N1)C(=O)OCC(C)(C)C2 (configuration not stated) | – | – | – | – | – | – | viability, T/C (compound 0.000949 µM): 45.5% [middle of 8 runs]; viability, T/C (compound 0.003 µM): 36.2% [middle of 8 runs]; viability, T/C (compound 0.00949 µM): 32.6% [middle of 8 runs]; viability, T/C (compound 0.03 µM): 29.9% [middle of 8 runs]; viability, T/C (compound 0.0949 µM): 22.1% [middle of 8 runs]; viability, T/C (compound 0.3 µM): 19.5% [middle of 8 runs]; IC50 [2]: < 0.949 nM
13 | CCn1c(-c2cccnc2C(C)OC)c2c3cc(ccc31)N1CCOC(CC(NC(=O)C(C(C)C)N(C)C(=O)C3(F)CCN(C(=O)C#CC(C)(C)N(C)C)CC3)C(=O)N3CCCC(N3)C(=O)OCC(C)(C)C2)C1 (configuration not stated) | – | – | – | – | – | – | viability, T/C (compound 0.000949 µM): 32.4% [middle of 8 runs]; viability, T/C (compound 0.00949 µM): 30.6% [middle of 8 runs]; viability, T/C (compound 0.03 µM): 31.6% [middle of 8 runs]; viability, T/C (compound 0.0949 µM): 30.8% [middle of 8 runs]; viability, T/C (compound 0.3 µM): 28.1% [middle of 8 runs]; IC50 [2]: < 0.949 nM and 5.92 nM
14 | C[C@@H](NC(=O)c1ncnc(N)c1Cl)c1ncc(C(=O)Nc2cc(C(F)(F)F)c(Cl)cn2)s1 | 107% [middle of 4 runs] | 106% and 109% (2×) and 116% | 108% [middle of 4 runs] | 101% (2×) and 99.7% and 106% | 90.6% [middle of 4 runs] | > 10000 nM | –
15 | Cc1nc(N2CCC3(CC2)COC(C)C3N)c(CO)nc1Sc1ccnc(N)c1Cl (configuration not stated) | 103% [middle of 4 runs] | – | 74.3% [middle of 4 runs] | 61.8% [middle of 4 runs] | 52.3% [middle of 4 runs] | – | viability, T/C (compound 10 µM): 48.9% [middle of 4 runs]
16 | Nc1ccn(C2OC(CO)C(O)C2(F)F)c(=O)n1 (configuration not stated) | 8.37% [middle of 4 runs] | 7.36% [middle of 4 runs] | 7.15% [middle of 4 runs] | 10.5% [middle of 4 runs] | – | 5.35 nM [middle of 4 runs] | viability, T/C (compound 0.00316 µM): 77.2% [middle of 4 runs]; viability, T/C (compound 0.01 µM): 15.3% [middle of 4 runs]
17 | O=C(c1ccc(F)c(F)c1Nc1ccc(I)cc1F)N1CC(O)([C@@H]2CCCCN2)C1 | 68.2% [middle of 4 runs] | 46.3% [middle of 4 runs] | 34.2% [middle of 4 runs] | 19.7% [middle of 4 runs] | – | 78.2 nM [middle of 4 runs] | –
